These are literature values, as cited in patent US6967217B1, “Process and composition for enhancing the action of vitamin a on the cellular activity of an individual, and use of vitamin c” (Natura Cosmetico S.A., priority 1998, dated 2005).

This data set concerns wrinkles. To be noted: Retinol 0.034%; men and women with age between 22 and 34 years.

The structures appear in SMILES notation.

Regarding `CC1=C(/C=C/C(C)=C/C=C/C(C)=C/CO)C(C)(C)CCC1` [Retinol], the effect on wrinkles result is “reduce the amount and the deepness of wrinkles”.
